Results taken from the NIST ThermoML archive (doi:10.1021/je200616t).
Numbers after ± are expanded uncertainties.

Experiment: xn = mol fraction of the nth substance listed
Settings: 101 kPa, Liquid, MP522 conductivity instrument

CCCCCC[n+]1ccccc1.O=S(=O)([N-]S(=O)(=O)C(F)(F)F)C(F)(F)F [1-hexylpyridinium bis(trifluromethylsulfonyl)imide] + CC1COC(=O)O1
electrical conductivity [S/m]
Settings | 283.15 K | 293.15 K | 298.15 K | 303.15 K | 313.15 K
x1 = 0.0128 | 0.184 ± 0.004 | 0.226 ± 0.005 | 0.249 ± 0.005 | 0.275 ± 0.006 | 0.324 ± 0.007
x1 = 0.0186 | 0.243 ± 0.005 | 0.303 ± 0.006 | 0.334 ± 0.007 | 0.367 ± 0.007 | 0.435 ± 0.009
x1 = 0.0321 | 0.354 ± 0.007 | 0.445 ± 0.009 | 0.489 ± 0.01 | 0.539 ± 0.011 | 0.641 ± 0.013
x1 = 0.0545 | 0.472 ± 0.01 | 0.597 ± 0.012 | 0.661 ± 0.013 | 0.731 ± 0.015 | 0.874 ± 0.018
x1 = 0.0693 | 0.519 ± 0.011 | 0.66 ± 0.013 | 0.733 ± 0.015 | 0.814 ± 0.016 | 0.976 ± 0.02
x1 = 0.1001 | 0.567 ± 0.011 | 0.729 ± 0.015 | 0.815 ± 0.016 | 0.911 ± 0.018 | 1.1 ± 0.022
x1 = 0.1332 | 0.574 ± 0.012 | 0.749 ± 0.015 | 0.841 ± 0.017 | 0.944 ± 0.019 | 1.16 ± 0.023
x1 = 0.1806 | 0.539 ± 0.011 | 0.72 ± 0.015 | 0.817 ± 0.016 | 0.925 ± 0.019 | 1.15 ± 0.023
x1 = 0.2489 | 0.463 ± 0.009 | 0.636 ± 0.013 | 0.73 ± 0.015 | 0.838 ± 0.017 | 1.06 ± 0.021
x1 = 0.334 | 0.366 ± 0.007 | 0.522 ± 0.011 | 0.609 ± 0.012 | 0.708 ± 0.014 | 0.918 ± 0.018
x1 = 0.4547 | 0.256 ± 0.005 | 0.384 ± 0.008 | 0.458 ± 0.009 | 0.542 ± 0.011 | 0.725 ± 0.015
x1 = 0.5693 | 0.19 ± 0.004 | 0.294 ± 0.006 | 0.358 ± 0.007 | 0.43 ± 0.009 | 0.589 ± 0.012
x1 = 0.7043 | 0.136 ± 0.003 | 0.218 ± 0.004 | 0.27 ± 0.006 | 0.332 ± 0.007 | 0.47 ± 0.01
x1 = 0.8506 | 0.0986 ± 0.0021 | 0.167 ± 0.003 | 0.208 ± 0.004 | 0.258 ± 0.005 | 0.377 ± 0.008
x1 = 0.9425 | 0.0826 ± 0.0018 | 0.141 ± 0.003 | 0.179 ± 0.004 | 0.223 ± 0.005 | 0.332 ± 0.007
x1 = 1 | 0.0737 ± 0.0016 | 0.129 ± 0.003 | 0.163 ± 0.003 | 0.205 ± 0.004 | 0.306 ± 0.006

CCCC[n+]1ccccc1.O=S(=O)([N-]S(=O)(=O)C(F)(F)F)C(F)(F)F [1-butylpyridinium bis[(trifluoromethyl)sulfonyl]imide] + CC1COC(=O)O1
electrical conductivity [S/m]
Settings | 283.15 K | 293.15 K | 298.15 K | 303.15 K | 313.15 K
x1 = 0.0282 | 0.356 ± 0.007 | 0.444 ± 0.009 | 0.489 ± 0.01 | 0.538 ± 0.011 | 0.635 ± 0.013
x1 = 0.0553 | 0.536 ± 0.011 | 0.672 ± 0.014 | 0.745 ± 0.015 | 0.821 ± 0.017 | 0.976 ± 0.02
x1 = 0.0934 | 0.66 ± 0.013 | 0.84 ± 0.017 | 0.933 ± 0.019 | 1.03 ± 0.021 | 1.24 ± 0.025
x1 = 0.1235 | 0.701 ± 0.014 | 0.896 ± 0.018 | 1 ± 0.02 | 1.12 ± 0.022 | 1.34 ± 0.027
x1 = 0.1897 | 0.686 ± 0.014 | 0.902 ± 0.018 | 1.02 ± 0.021 | 1.15 ± 0.023 | 1.4 ± 0.028
x1 = 0.269 | 0.607 ± 0.012 | 0.821 ± 0.017 | 0.938 ± 0.019 | 1.07 ± 0.022 | 1.34 ± 0.027
x1 = 0.3709 | 0.493 ± 0.01 | 0.692 ± 0.014 | 0.802 ± 0.016 | 0.927 ± 0.019 | 1.19 ± 0.024
x1 = 0.4666 | 0.4 ± 0.008 | 0.58 ± 0.012 | 0.681 ± 0.014 | 0.798 ± 0.016 | 1.04 ± 0.021
x1 = 0.5668 | 0.323 ± 0.007 | 0.483 ± 0.01 | 0.575 ± 0.012 | 0.679 ± 0.014 | 0.906 ± 0.018
x1 = 0.6944 | 0.248 ± 0.005 | 0.386 ± 0.008 | 0.467 ± 0.01 | 0.561 ± 0.011 | 0.764 ± 0.015
x1 = 0.7943 | 0.208 ± 0.004 | 0.33 ± 0.007 | 0.403 ± 0.008 | 0.489 ± 0.01 | 0.681 ± 0.014
x1 = 0.8591 | 0.188 ± 0.004 | 0.3 ± 0.006 | 0.367 ± 0.008 | 0.448 ± 0.009 | 0.628 ± 0.013
x1 = 0.9208 | 0.17 ± 0.004 | 0.275 ± 0.006 | 0.338 ± 0.007 | 0.415 ± 0.008 | 0.587 ± 0.012
x1 = 0.9715 | 0.157 ± 0.003 | 0.256 ± 0.005 | 0.317 ± 0.007 | 0.392 ± 0.008 | 0.556 ± 0.011
x1 = 1 | 0.15 ± 0.003 | 0.246 ± 0.005 | 0.307 ± 0.006 | 0.378 ± 0.008 | 0.54 ± 0.011
